Results published in publication PMC4900566, “Pharmacokinetic-Pharmacodynamic Analysis on Inflammation Rat Model after Oral Administration of Huang Lian Jie Du Decoction” (PLoS ONE, 2016).
Read-outs that look alike come from different tables or passages of the source.

Assay: Pharmacokinetics of HLJDD components in rat plasma after oral administration of HLJDD (LC-QqQ-MS, non-compartmental)
Format: in vivo, Sprague-Dawley rats
Settings: oral HLJDD extract; for AUC%Extrap / AUMClast / Cmax1 / Cmax2 / HLλz / Tmax1 / Tmax2 / AUC(0-inf) / AUC(0-t) / MRT last / CL/F / Vd/F / AUCinf / AUClast / MRTlast / Vz/F: crude material 3.5 g/kg, plasma, n = 6; for mean AUClast, fold larger in the inflamed group than in the control group: inflamed vs normal rats; for Vd/F: read-out: Vz/F
Method: The rats were acclimatized to the facilities for 5 days and screened via the continuous determination of the rectal temperature for two days. […] The control group G1 was injected with the same volume of physiological saline. The ethics committees of Cisco North Biotechnology Co., Ltd. (Beijing, China) and the China Academy of Chinese Medical Sciences (Beijing, China) approved the experimental protocol.
For the PK-PD analysis, cannulas were implanted in each rat’s jugular vein (n = 22). To study the hepatic first-pass effect (HFPE), the jugular vein and the pyloric vein of each rat (n = 5) were cannulated according to the method described by Hye J. Chung et al. with slight modifications. Instead of the portal vein, the pyloric vein was cannulated to minimize the interference of blood flow in the portal vein [41]. The surgery was performed under anesthesia (3% chloral hydrate solution, intraperitoneal injection; 3.5 mL/kg) 5 days prior to the experiment. Rats with jugular vein intubation surgery were divided into four groups: a control group with HLJDD (G1, n = 6), aninflammatory group with HLJDD (G2, n = 6), aninflammatory group with physiological saline (G3, n = 5) and another inflammatory group with HLJDD (G4, n = 5). G1 and G2 were used for the pharmacokinetic study, while G3 and G4 were used for the pharmacodynamic study. Rats with jugular and pyloric vein cannulation for HFPE analysis were assigned to another inflammatory group with HLJDD (G5, n = 5).
The prepared HLJDD-EP solution was administered to the rats (G1, G2, G4 and G5) at 2 mL/100g body weight (crude material content: 3.5 g/kg) by oral gavage, and the G3 group was given the same volume of physiological saline. […] The rectal temperature of rats in the G3 and G4 groups was immediately monitored after each collection of blood. […] Samples were collected in heparinized Eppendorf tubes and centrifuged at 3000 rpm for 15 min. The plasma was stored at -80°C until assay.
The supernatant was dried with nitrogen at 40°C. The residue was re-dissolved in 100 μL of methanol and centrifuged at 15000 rpm for 10 min.
Liquid chromatographic separations of the analytes were performed using a Thermo Scientific Hypersil GOLD column (50 mm× 2.1 mm, 1.9 μm). The mobile phase consisted of acetonitrile (solvent A) and 0.1% formic acid in water (solvent B). […] The flow rate was 0.3 mL/min. The injection volume was 2 μL. […] The optimized ESI source parameters were as follows: gas temperature, 200°C; gas flow, 14 L/min; nebulizer pressure, 20 psi; sheath gas temperature, 400°C; and sheath gas flow, 11 L/min. Analytes were quantitated by monitoring the precursor-product combination in the DMRM mode using ion polarity switching (flavonoids and alkaloids were determined in the positive mode, while iridoids were detected in the negative mode). To ensure the desired abundance of each compound, the CE values and other parameters were optimized and illustrated as follows: cycle time, 300 ms; positive capillary voltage, 3000 v; negative capillary voltage, 2000 v; positive nozzle voltage, 1500 v; negative nozzle voltage, 1000 v; Delta EMV(+), 200 v; Delta EMV(-), 200 v. The optimized mass transition ion pairs (m/z) for analytes and the detection of the conditions of the compounds are shown in S1 Table.
Pharmacokinetic parameters of the determined compounds were processed by the non-compartmental method using Phoenix Winnonlin software (Pharsight Corporation, USA). Linear trapezoidal integration was used to calculate areas under the concentration-time curves (AUC) and areas under the first moment curves (AUMC). The mean residence time (MRT) was determined as AUMC/AUC. The plasma half-life (HLλz), maximum plasma concentration (Cmax), the time to reach Cmax (Tmax) and other parameters following the administration of HLJDD were determined from the observed data. The HFPE was defined as HCR: HCR% = 100×(AUC0−t in the pyloric vein-AUC0−t in the jugular vein)/AUC0−t in the pyloric vein.

[1] = male, Sprague-Dawley, rat, po, 3.5 g/kg, inflamed rats (group M)
[2] = male, Sprague-Dawley, rat, po, 3.5 g/kg, inflamed rats (group M), read-out: CL/F (converted)
[3] = male, Sprague-Dawley, rat, po, 3.5 g/kg, normal rats (group B)
[4] = male, Sprague-Dawley, rat, in vivo, po, 3.5 g/kg, inflamed rats (group M)
[5] = male, Sprague-Dawley, rat, in vivo, po, 3.5 g/kg, normal rats (group B)

Row | Cmax2 (inflamed rats (group M)) [ng/mL] | Tmax2 (inflamed rats (group M)) [h] | AUC(0-inf) [1] [ng·h/mL] | AUC(0-t) [1] [ng·h/mL] | MRT last [1] [h] | AUC(0-inf) [3] [ng·h/mL] | AUC(0-t) [3] [ng·h/mL] | Cmax2 (normal rats (group B)) [ng/mL] | Tmax2 (normal rats (group B)) [h] | SMILES | AUC%Extrap (inflamed rats (group M)) [%] | AUMClast (inflamed rats (group M)) [h*h*ng/ml] | Cmax1 (inflamed rats (group M)) [ng/mL] | HLλz (inflamed rats (group M)) [h] | Tmax1 (inflamed rats (group M)) [min] | mean AUClast, fold larger in the inflamed group than in the control group [fold] | AUC%Extrap (normal rats (group B)) [%] | AUMClast (normal rats (group B)) [h*h*ng/ml] | Cmax1 (normal rats (group B)) [ng/mL] | HLλz (normal rats (group B)) [h] | Tmax1 (normal rats (group B)) [min] | also measured
1 | 0.3 ± 0.3 | 10.8 ± 2.7 | 3.4 ± 0.7 | 2.7 ± 0.8 | 8.4 ± 3.1 | 1.8 ± 0.6 | 1.3 ± 0.5 | 0.1 ± 0.03 | 8.0 ± 2.2 | COc1ccc2cc3[n+](cc2c1OC)CCc1cc2c(cc1-3)OCO2 [berberine] | 10.7±7.0 | 22.6±8.6 | 0.5 ± 0.2 | 9.1 ± 2.5 | 60 ± 36 | 2.1 | 25.9±15.5 | 8.9±8.6 | 0.4 ± 0.1 | 6.3 ± 3.5 | 36 ± 24 | MRT last [3]: 5.7 ± 3.5 h
2 |  |  |  |  |  |  |  |  |  | COC(=O)C1=CO[C@@H](O[C@@H]2O[C@H](CO)[C@@H](O)[C@H](O)[C@H]2O)[C@@H]2C(CO)=CC[C@H]12 [geniposide] | 8.9±2.9 | 1231.9±677.2 | 223.2 ± 43.7 | 1.6 ± 0.7 | 48 ± 18 | 2.9 | 11.5±1.5 | 192.5±74.8 | 171.6 ± 70.6 | 0.6 ± 0.3 | 42 ± 18 | AUC(0-inf) [4]: 696 ± 363 ng·h/mL; AUC(0-t) [4]: 638 ± 323 ng·h/mL; MRT last [4]: 1.9 ± 0.8 h; CL/F (male, Sprague-Dawley, rat, in vivo, po, 3.5 g/kg, inflamed rats (group M), read-out: CL/F (converted)): 3760 mL/min/kg; Vd/F [4]: 372 ± 86.7 L/kg; AUC(0-inf) [5]: 240 ± 82.1 ng·h/mL; AUC(0-t) [5]: 217 ± 86.2 ng·h/mL; MRT last [5]: 0.9 ± 0.1 h; CL/F (male, Sprague-Dawley, rat, in vivo, po, 3.5 g/kg, normal rats (group B), read-out: CL/F (converted)): 6860 mL/min/kg; Vd/F [5]: 235 ± 94.2 L/kg
3 |  |  |  |  |  |  |  |  |  | COc1ccc2c(c1O)-c1c(O)c(OC)cc3c1[C@H](C2)[N+](C)(C)CC3 [magnolflorine] | 17.6±8.0 | 97.9±55.4 | 6.0 ± 1.7 | 4.3 ± 2.2 | 36 ± 18 | 1.6 | 6.2±2.4 | 29.5±5.8 | 6.5 ± 1.1 | 1.6 ± 0.4 | 36 ± 12 | AUCinf (inflamed rats (group M)): 29.3 ± 13.8 ng·h/mL; AUClast (inflamed rats (group M)): 24.9 ± 14.6 ng·h/mL; MRTlast (inflamed rats (group M)): 4.1 ± 1.9 h; Vz/F (inflamed rats (group M)): 607.8 ± 396.5 L/kg; AUCinf (normal rats (group B)): 17.0 ± 2.0 ng·h/mL; AUClast (normal rats (group B)): 16.0 ± 2.0 ng·h/mL; CL/F (normal rats (group B)): 2377 ± 265 mL/min/kg; MRTlast (normal rats (group B)): 1.8 ± 0.1 h; Vz/F (normal rats (group B)): 339.5 ± 97.3 L/kg
4 | 65.5 ± 18.2 | 9.6 ± 2.2 |  |  |  |  |  | 85.8 ± 40.3 | 4.0 ± 0.0 | COc1c(O[C@@H]2O[C@H](C(=O)O)[C@@H](O)[C@H](O)[C@H]2O)cc2oc(-c3ccccc3)cc(=O)c2c1O [oroxylin A-7-O-glucuronide] | 46.2±12.3 | 18194.0±6706.5 | 108.7 ± 47.6 | 20.1 ± 6.1 | 5.4 ± 1.8 |  | 10.3±6.8 | 1935.2±487.3 | 106.9 ± 43.8 | 3.2 ± 0.9 | 5.4 ± 1.8 | AUCinf (inflamed rats (group M)): 2157.4 ± 785.0 ng·h/mL; AUClast (inflamed rats (group M)): 1209.8 ± 606.4 ng·h/mL; CL/F (inflamed rats (group M)): 202 ± 70 mL/min/kg; MRTlast (inflamed rats (group M)): 12.5 ± 2.3 h; Vz/F (inflamed rats (group M)): 322.4 ± 22.0 L/kg; AUCinf (normal rats (group B)): 486.8 ± 96.9 ng·h/mL; AUClast (normal rats (group B)): 440.7 ± 106.9 ng·h/mL; CL/F (normal rats (group B)): 845 ± 225 mL/min/kg; MRTlast (normal rats (group B)): 4.4 ± 0.5 h; Vz/F (normal rats (group B)): 247.8 ± 140.4 L/kg
5 | 2.3 ± 0.8 | 7.0 ± 3.0 | 24.6 ± 6.1 | 21.1 ± 4.1 | 16.5 ± 6.2 | 2.4 ± 0.5 | 2.3 ± 0.5 | 0.4 ± 0.1 | 4.0 ± 0.0 | COc1c(O)cc2oc(-c3ccccc3)cc(=O)c2c1O [oroxylin A] | 13.4±8.6 | 365.4±192.9 | 2.5 ± 1.1 | 16.3 ± 8.8 | 4.8 ± 0 |  | 5.3±3.4 | 7.1±2.7 | 1.5 ± 0.6 | 1.7 ± 0.9 | 4.8 ± 0 | CL/F [2]: 1790 mL/min/kg; Vd/F [1]: 2820 ± 507 L/kg; MRT last [3]: 3 ± 0.6 h; Vd/F [3]: 2500 ± 1080 L/kg

Row | SMILES | Cmax2 (inflamed rats (group M)) [ng/mL] | Tmax2 (inflamed rats (group M)) [h] | AUC(0-inf) [1] [ng·h/mL] | AUC(0-t) [1] [ng·h/mL] | MRT last [1] [h] | AUC(0-inf) [3] [ng·h/mL] | AUC(0-t) [3] [ng·h/mL] | Cmax2 (normal rats (group B)) [ng/mL] | Tmax2 (normal rats (group B)) [h] | AUC%Extrap (inflamed rats (group M)) [%] | AUMClast (inflamed rats (group M)) [h*h*ng/ml] | Cmax1 (inflamed rats (group M)) [ng/mL] | HLλz (inflamed rats (group M)) [h] | Tmax1 (inflamed rats (group M)) [min] | mean AUClast, fold larger in the inflamed group than in the control group [fold] | AUC%Extrap (normal rats (group B)) [%] | AUMClast (normal rats (group B)) [h*h*ng/ml] | Cmax1 (normal rats (group B)) [ng/mL] | HLλz (normal rats (group B)) [h] | Tmax1 (normal rats (group B)) [min] | also measured
6 | O=C(O)[C@H]1O[C@@H](Oc2cc3oc(-c4ccccc4)cc(=O)c3c(O)c2O)[C@H](O)[C@@H](O)[C@@H]1O [baicalin] | 1000.4 ± 298.1 | 9.3 ± 2.1 | 16800 ± 9090 | 15700 ± 9300 | 10.1 ± 2.3 | 8130 ± 906 | 7880 ± 775 | 1580.1 ± 202.4 | 4.3 ± 0.8 | 2.7±0.5 | 175077.1±103375.1 | 2420.9 ± 922.5 | 4.7 ± 1.1 | 6 ± 2.4 | 2.0 | 2.9±2.3 | 34124.1±4967.9 | 1828.8 ± 737.4 | 1.8 ± 0.4 | 5.4 ± 1.8 | CL/F [2]: 145 mL/min/kg; Vd/F [1]: 58.8 ± 25.2 L/kg; MRT last [3]: 4.3 ± 0.3 h; CL/F (male, Sprague-Dawley, rat, po, 3.5 g/kg, normal rats (group B), read-out: CL/F (converted)): 258 mL/min/kg; Vd/F [3]: 39.6 ± 7.1 L/kg
